Source: BindingDB's records for doi:10.1021/jm030585i (Merck Research Laboratories, 2004)

These molecules were tested against T1, Mineralocorticoid receptor (Rattus norvegicus, UniProt P22199).
T1 sequence (P22199 whole entry): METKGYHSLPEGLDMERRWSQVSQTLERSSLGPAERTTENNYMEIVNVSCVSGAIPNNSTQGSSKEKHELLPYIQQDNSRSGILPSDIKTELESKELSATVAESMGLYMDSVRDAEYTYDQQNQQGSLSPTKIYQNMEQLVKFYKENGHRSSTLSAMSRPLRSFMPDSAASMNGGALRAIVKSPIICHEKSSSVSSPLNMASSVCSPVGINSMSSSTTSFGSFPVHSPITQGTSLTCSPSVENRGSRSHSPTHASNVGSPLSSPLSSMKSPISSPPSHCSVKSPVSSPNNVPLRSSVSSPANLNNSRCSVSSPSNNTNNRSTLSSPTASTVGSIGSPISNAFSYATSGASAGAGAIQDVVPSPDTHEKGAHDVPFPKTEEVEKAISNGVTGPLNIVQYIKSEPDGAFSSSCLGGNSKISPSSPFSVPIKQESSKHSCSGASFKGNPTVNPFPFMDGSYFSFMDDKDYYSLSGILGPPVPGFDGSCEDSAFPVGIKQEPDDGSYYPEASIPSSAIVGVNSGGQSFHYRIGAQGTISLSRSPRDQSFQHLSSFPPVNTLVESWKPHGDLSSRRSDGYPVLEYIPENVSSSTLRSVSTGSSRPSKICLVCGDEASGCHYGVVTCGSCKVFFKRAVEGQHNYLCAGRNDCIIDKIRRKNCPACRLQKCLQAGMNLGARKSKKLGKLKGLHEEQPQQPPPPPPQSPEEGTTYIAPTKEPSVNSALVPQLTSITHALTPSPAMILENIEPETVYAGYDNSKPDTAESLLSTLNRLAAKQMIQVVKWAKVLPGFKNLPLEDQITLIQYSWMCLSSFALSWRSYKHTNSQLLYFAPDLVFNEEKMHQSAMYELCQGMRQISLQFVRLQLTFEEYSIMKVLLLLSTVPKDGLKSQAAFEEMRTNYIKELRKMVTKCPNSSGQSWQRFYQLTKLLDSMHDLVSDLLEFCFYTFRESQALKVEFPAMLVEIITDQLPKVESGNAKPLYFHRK

SMILES | IC50
C[C@]12Cc3cnn(-c4ccc(F)cc4)c3C=C1CCC[C@@H]2[C@@H](O)c1ccc(F)cc1 [BMCL173354 benzo[f]indazole, 6] | > 5 µM
COc1cc([C@H](O)[C@H]2CCCC3=Cc4c(cnn4-c4ccc(F)cc4)C[C@@]32C)cc(F)c1F [(R)-[(4aR,5S)-1-(4-fluorophenyl)-4a-methyl-1H,4H,4aH,5H,6H,7H,8H-cyclohexa[f]indazol-5-yl](3,4-difluoro-5-methoxyphenyl)methanol] | > 5 µM
C[C@]12Cc3cnn(-c4ccc(F)cc4)c3C=C1CCC[C@@H]2[C@H](O)c1ccc(F)cc1 [BMCL173354 benzo[f]indazole, 7] | > 5 µM
C[C@]12Cc3cnn(-c4ccc(F)cc4)c3C=C1CCC[C@@H]2[C@@H](O)c1ccccc1 [(R)-[(4aR,5S)-1-(4-fluorophenyl)-4a-methyl-1H,4H,4aH,5H,6H,7H,8H-cyclohexa[f]indazol-5-yl](phenyl)methanol] | > 5 µM
C[C@]12Cc3cnn(-c4ccc(F)cc4)c3C=C1CCC[C@@H]2[C@](C)(O)c1ccc(F)cc1 [(1S)-1-[(4aR,5S)-1-(4-fluorophenyl)-4a-methyl-1H,4H,4aH,5H,6H,7H,8H-cyclohexa[f]indazol-5-yl]-1-(4-fluorophenyl)ethan-1-ol] | > 5 µM
C=CCC[C@H](O)[C@H]1CCCC2=Cc3c(cnn3-c3ccc(F)cc3)C[C@@]21C [(1S)-1-[(4aR,5S)-1-(4-fluorophenyl)-4a-methyl-1H,4H,4aH,5H,6H,7H,8H-cyclohexa[f]indazol-5-yl]pent-4-en-1-ol] | > 5 µM
